Results from publication PMC2781551, “Antibody Complementarity-Determining Regions (CDRs): A Bridge between Adaptive and Innate Immunity” (PLoS ONE, 2009).

Legend:
[1] = system: peritoneal murine macrophages (PM); assay: Cytokine production by peritoneal macrophages (ELISA); type: cell-based, mouse (Balb/c); conditions: for reduction of TNF-α production induced by LPS / reduction of TNF-α production induced by VHCDR3: PM 5×10^6/ml, wortmannin 4 nM or SB203580 0,2 µM; for reduction of TNF-α production induced by LPS: LPS 10 µg/ml; for reduction of TNF-α production induced by VHCDR3: VHCDR3 10 µg/ml; for TNF-α production by PM / IL-6 production by PM: 18 h, P<0.05 vs untreated
Experimental: DC and CD4^+ T cells were separated from spleens of inbred Balb/c mice using N-418 or L3T4 mAb-conjugated MicroBeads (Miltenyi Biotec, Bergisch Gladbach, Germany), and magnetic separation was performed according to the manufacturer's instruction. Peritoneal murine neutrophils (PMN) and macrophages (PM) were collected 18 h or 4 days, respectively, after the intraperitoneal injection of 1 ml endotoxin-free 10% thioglycolate solution (Difco).
(§1) Unfractionated spleen cells (10×10^6/ml), recovered from Balb/c mice, were cultured in the presence or absence of mAb HuA and mAb MoA CDR peptides, LPS or NC (all 10 µg/ml) for 18 h in RPMI-1640 plus 10% FCS (complete medium) at 37°C and 5% CO2. After incubation, the supernatants were collected and tested for TNF-α and IL-6 levels by specific ELISA assays (Biosource, Camarillo, CA, USA). In selected experiments, PM (5×10^6/ml) were cultured as above described. After incubation, the supernatants were collected and tested for TNF-α and IL-6 levels by specific ELISA assays (Biosource). PM (5×10^6/ml) were cultured in the presence or absence of mouse VHCDR3, LPS, NC or SP (all at 10 µg/ml) for 1 or 18 h in complete medium at 37°C and 5% CO2. PM (5×10^6/ml) were cultured as above described in the presence or absence of wortmannin (4 nM) or SB203580 (0,2 µM) (both from Sigma). After incubation, the supernatants were collected and tested for TNF-α level by specific ELISA assays (Biosource). In selected experiments, PM (5×10^6/ml) were cultured in the presence or absence of VHCDR3, LPS, NC, SP and nine VHCDR3 alanine-substituted derivatives (all at 10 µg/ml) for 18 h in complete medium at 37°C and 5% CO2. After incubation, the supernatants were collected and tested for TNF-α level by specific ELISA assays (Biosource). PMN (5×10^6/ml) were cultured in the presence or absence of mAb MoA CDR peptides, LPS or NC (all 10 µg/ml) for 18 h in complete medium at 37°C and 5% CO2. After incubation, the supernatants were collected and tested for TNF-α and IL-6 levels by specific ELISA assays (Biosource). Cytokine titers were calculated by reference to standard curves, constructed with known amounts of recombinant cytokines.

IkBα = assay: Phospho-IkBα Western blotting in PM; type: cell-based, mouse (Balb/c); conditions: 1 h, n = 5
Experimental: (§2) After incubation, cells were washed and lysated with Mammalian protein extraction reagent (M-PER) in the presence of protease and phosphatase inhibitors (all from Pierce, Rockford, IL). Protein concentration was determined with a BCA protein Assay Reagent kit (Pierce). The lysates (30 µg of each sample) were separated by sodium dodecyl-sulfate-10% PAGE, transferred to a nitrocellulose membrane (Pierce) for 1 h at 100 V in a blotting system (Bio-Rad) for Western Blot analysis, and the membranes were incubated over-night with rabbit polyclonal Abs to phospho-Akt (pAkt; dilution 1/1000), phospho-IkBα (pIkBα; dilution 1/1000) (all from Cell Signalling Technology, Beverly, MA) and rabbit polyclonal Ab to TLR-4 (dilution 1/200) (Santa Cruz Biotechnology Inc.) in blocking buffer. […] Immunoreactive bands were visualized and quantified by Chemidoc Instrument (Bio-Rad). In particular, a quantitative analysis of the region of interest drawn around the outer edge of the band, was performed based on the guidelines for the use of the Chemidoc Instrument (Bio-Rad). […] All the parallelograms that form a band create one unique three-dimensional solid structure on which the volume is calculated. […]

murine splenocytes = assay: Cytokine production by unfractionated spleen cells (ELISA); type: cell-based, mouse (Balb/c); conditions: 10 µg/ml, 18 h, 10×10^6 cells/ml, ELISA of supernatants, data not shown
Experimental: as §1

TNF-α gene = TNF-α gene expression in PM (quantitative RT-PCR); type: cell-based, mouse (Balb/c); conditions: PM 1×10^6/ml, 10 µg/ml, qPCR normalized against GADPH, n = 5
Experimental: (§3) After incubation, cells were lysed using Trizol reagent (Invitrogen, Carlsbad, CA), and total RNA was extracted. The reverse transcriptase (RT) reaction was performed using Moloney murine leukaemia virus reverse transcriptase (M-MLV RT), as described in the manufacturer's instructions (Invitrogen).
(§4) TNF-α, TLR-4, and GADPH clones for use as standards were prepared by PCR from cDNA derived from PM and cloned into p-Drive vector (Qiagen, S.p.A., Milano, Italy). These were verified by sequence analysis. Plasmid DNA was diluted 10-fold and the starting concentration for the dilution series was 10^8 gene copies/µl.
(§5) For each target gene, primers were selected using the Beacon Designer software (Bio-Rad, Hercules, CA). Real-time RT-PCR (quantitative RT-PCR) was performed in 96-well PCR plates using the SYBR green (all from BioRad). For real-time PCR reaction 100 ng/µl of reverse-transcribed RNA was used and cDNA was normalized according to GADPH as an internal NC gene. Amplification conditions were the same for TNF-α, TLR-4 and GADPH mRNAs assayed: 3 min at 95°C, 40 cycles of 10 s at 95°C and 30 s at 62°C. For the Melt Curve, the amplification condition was: 1 min at 50°C and 90 cycles of 10 s at 50°C. The experiments were performed using the iCycler IQ Multicolor Real-time PCR Detection System (BioRad).

TLR-4 gene = TLR-4 gene expression in PM (quantitative RT-PCR); type: cell-based, mouse (Balb/c); conditions: PM 1×10^6/ml, 10 µg/ml, qPCR normalized against GADPH, n = 5
Experimental: as §3, §4, §5

TLR-4 [2] = assay: TLR-4 expression in PM (flow cytometry); type: cell-based, mouse (Balb/c); conditions: PM 1×10^6/ml, 10 µg/ml, 1 h, RPE-labelled mAb to TLR-4, FACScan, representative experiment out of five
Source text: Data are reported as percentage of positive cells. […] Data are expressed as percentage of positive cells.

[3] = system: C. albicans strain (CA-6); conditions: previously proven; ref [8], [16]; cited from earlier work
Source text: The CDRs of human mAb HuA (IgM) and mouse mAb MoA (IgM) specific for the difucosyl human blood group A substance, were chemically synthesized on the basis of the previously described sequences of VH and VL chain [21]. An irrelevant synthetic decapeptide (MSTAVSKCAT), previously proven to be devoid of either candidacidal or immunomodulatory activity, was used as a negative control (NC), [16]. In selected experiments, a scramble peptide (SP) (YYWLQGGFAN) and nine VHCDR3 alanine-substituted derivatives were used for control of specificity and evalua ...

[4] = system: C. albicans strain (CA-6); assay: In vitro candidacidal CFU assay; type: cell-based, Candida albicans; conditions: 100 µg/ml, CA-6 cells
Experimental: The origin and characteristics of the highly virulent C. albicans strain (CA-6) used in this study have been previously described. The culture was maintained by serial passages on Sabouraud agar (BioMérieux, Lyon, France). The yeast cells were harvested by suspending a single colony in saline, washed twice, counted in a hemocytometer and adjusted to the desired concentration.
The in vitro activity against CA-6 cells of mAb MoA synthetic CDRs at the concentration of 100 µg/ml was evaluated by a conventional Colony Forming Unit (CFU) assay as described elsewhere.

Akt = assay: Phospho-Akt Western blotting in PM; type: cell-based, mouse (Balb/c); conditions: PM 3×10^6/ml, 10 µg/ml, 1 h, Western blot, with respect to NC and SP, n = 5
Experimental: as §2

TLR-4 [5] = assay: TLR-4 protein Western blotting in PM; type: cell-based, mouse (Balb/c); conditions: PM 3×10^6/ml, 10 µg/ml, 1 and 3 h, Western blot, n = 5
Experimental: as §2

C. albicans (CA-6) = assay: Therapeutic activity against systemic candidiasis in mice; type: in vivo, Balb/c mice; conditions: 200 µg i.p. 4 h before, 100 µg 1 and 2 days after infection
Experimental: Female, 8–10 weeks old, inbred Balb/c mice were obtained from Harlan Nossan Laboratories (Milan, Italy) and housed at the Animal Facilities of the University of Perugia, Perugia, Italy. Procedures involving animals and their care were conducted in conformity with national and international laws and policies.
Groups of 7 Balb/c mice were infected intravenously with 5×10^5 or 7.5×10^5 CA-6 cells suspended in 0.5 ml saline for evaluation of fungal clearance or mice survival, respectively.
Infected animals were given 200 µg of mouse VLCDR3 or VHCDR3 peptides intraperitoneally 4 h before infection, and 100 µg 1 and 2 days after infection for a total of 400 µg/mouse. Untreated animals served as a NC. Quantification of fungal growth at 5, 7, and 12 days after infection was assessed by plating serial dilutions of kidney homogenates onto Sabouraud agar. Animal survival was monitored for 30 days after infection.

PM = assay: Uptake of biotin-labelled peptide by PM (flow cytometry); conditions: 10 µg/ml, 37°C, FACScan, n = 7
Experimental: DC, PM, PMN and CD4^+ T cells (all 1×10^6/ml) were incubated for 1 h with biotin-labelled mouse VHCDR3 (b-VHCDR3) or biotin-labelled NC (b-NC) (both 10 µg/ml) in complete medium at 37°C and 5% CO2. After incubation, cells were fixed with 4% formalin for 5 min at room temperature (RT), permeabilized with 0.1% saponin, washed with 0.1% saponin and incubated for 20 min on ice with FITC-labelled mAb to biotin (1 µl/test; Mouse IgG1 isotype) (Miltenyi Biotec), washed with 0.1% saponin and analyzed by FACScan flow cytometry (BD Biosciences). Data are reported as percentage of positive cells. In selected experiments, PM (1×10^6/ml) were incubated for different times with b-VHCDR3 or b-NC (both 10 µg/ml) in complete medium at 37°C and 5% CO2. After incubation, cells were fixed, permeabilized and washed as above and incubated for 20 min on ice with FITC-labelled mAb to biotin, washed with 0.1% saponin and analyzed by FACScan flow cytometry (BD Biosciences). Data are reported as mean fluorescence intensity (MFI) or percentage of positive cells. […] NC staining of cells with irrelevant Abs were used to obtain background fluorescence values.
In selected experiments, PM were incubated for 1 h with b-VHCDR3 or b-NC (both 10 µg/ml) in complete medium at 37°C and 5% CO2. After incubation, cells were reacted with FITC-labelled mAb to biotin in the presence of Evans' Blue (StemCell Technologies Inc., Milan, Italy) as a counterstain, and subsequently examined under fluorescent light microscopy (Carl Zeiss, Jena, Germany).

[6] = 10 µg/ml, 5×10^6 cells/ml, n = 7

Molecule: COC[C@H]1OC(=O)c2coc3c2[C@@]1(C)C1=C(C3=O)[C@@H]2CCC(=O)[C@@]2(C)C[C@H]1OC(C)=O [wortmannin]
- reduction of TNF-α production induced by LPS [1]: 39%
- reduction of TNF-α production induced by VHCDR3 [1]: 28%
- effect on VHCDR3-induced IkBα phosphorylation (IkBα; PM, wortmannin 4 nM with VHCDR3 10 µg/ml): significantly reduced

Molecule: MSTAVSKCAT [NC, irrelevant synthetic decapeptide used as a negative control, reference compound]
- IL-6 production by splenocytes (murine splenocytes): did not affect cytokine production
- TNF-α production by splenocytes (murine splenocytes): did not affect cytokine production
- TNF-α production by PM ([1]; 10 µg/ml, 5×10^6 cells/ml): did not stimulate cytokine production
- IL-6 production by PM [1, 6]: did not stimulate cytokine production
- TNF-α gene expression, 1 and 6 h (TNF-α gene): inability
- TLR-4 gene expression, 1 h (TLR-4 gene): No activation
- Percentage of TLR-4 positive cells (TLR-4 [2]): 24.1
- candidacidal or immunomodulatory activity [3]: devoid

Molecule: GQYGNLWFAY [VHCDR3]
- candidacidal effect in vitro [4]: ineffective
- IL-6 production by splenocytes (murine splenocytes): increased production
- TNF-α production by splenocytes (murine splenocytes): increased production
- TNF-α production by PM after 1 h ([1]; 10 µg/ml, 1 h, 5×10^6 cells/ml, n = 7): significant increase
- TNF-α production by PM ([1]; 10 µg/ml, 5×10^6 cells/ml): significant up-regulation
- IL-6 production by PM [1, 6]: significant up-regulation
- Akt phosphorylation (pAkt normalized against Akt) (Akt): increased activation of pAkt
- IkBα phosphorylation (pIkBα normalized against IkBα) (IkBα; PM 3×10^6/ml, 10 µg/ml, Western blot, compared to NC): increased activation of pIkBα
- TNF-α gene expression, 1 and 6 h (TNF-α gene): significant increase
- TNF-α gene expression, 18 h (TNF-α gene; 18 h): rapid decline of gene expression
- TLR-4 gene expression, 1 h (TLR-4 gene): significant increase
- TLR-4 gene expression, 6 h (TLR-4 gene; 6 h): declined
- TLR-4 protein (normalized against actin) (TLR-4 [5]): significant up-regulation
- Percentage of TLR-4 positive cells (TLR-4 [2]): significant increase
- Percentage of TLR-4 positive cells (TLR-4 [2]; listed as VH CDR3): 38.1
- CFU recovery from kidneys (C. albicans (CA-6); 5×10^5 CA-6 cells i.v., 5, 7 and 12 days after infection, n = 7): impressive decrease
- survival of infected mice (C. albicans (CA-6); 7.5×10^5 CA-6 cells i.v., 30 days, vs untreated or VLCDR3-treated, Log rank P<0.05, n = 7): significant increase in survival
- kinetics of uptake by PM (MFI and percentage of positive cells), 6 and 18 h (PM; 6 and 18 h incubation): persisted
- kinetics of uptake by PM (MFI and percentage of positive cells), 1 h (PM; 1 h incubation): high level
- kinetics of uptake by PM (MFI and percentage of positive cells), 72 h (PM; 72 h incubation): negligible levels

Molecule: QQRSNWPRS [mAb HuA VLCDR3, synthetic VLCDR3 of human mAb HuA]
- IL-6 production by splenocytes (murine splenocytes): significant up-regulation
- IL-6 production by PM [1, 6]: significant up-regulation

Molecule: C[S+]([O-])c1ccc(-c2nc(-c3ccncc3)c(-c3ccc(F)cc3)[nH]2)cc1 (centres unmarked) [SB203580]
- reduction of TNF-α production induced by LPS [1]: 28%
- reduction of TNF-α production induced by VHCDR3 [1]: 21%
